Test results: ChEMBL document CHEMBL5518197, “Recent advances in the development of deubiquitinases inhibitors as antitumor agents” (Eur J Med Chem, 2024)
One block for each compound: values may come before it.

Key:
[1] = molecular target: T1, Caspase-3 (Homo sapiens, UniProt P42574); experiment: Inhibition of caspase-3 (unknown origin) by microplate reader analysis
T1 sequence (P42574 whole entry): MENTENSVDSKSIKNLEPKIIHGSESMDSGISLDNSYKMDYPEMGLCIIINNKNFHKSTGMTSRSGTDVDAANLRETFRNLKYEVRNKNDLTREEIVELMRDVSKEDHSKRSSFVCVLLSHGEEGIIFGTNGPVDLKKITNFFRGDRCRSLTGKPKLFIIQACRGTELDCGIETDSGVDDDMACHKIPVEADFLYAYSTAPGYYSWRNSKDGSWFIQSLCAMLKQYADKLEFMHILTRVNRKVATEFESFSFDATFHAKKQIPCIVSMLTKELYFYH

[2] = molecular target: T2, Ubiquitin carboxyl-terminal hydrolase 28 (Homo sapiens, UniProt Q96RU2); experiment: Inhibition of USP28 (unknown origin)
T2 sequence (Q96RU2 whole entry): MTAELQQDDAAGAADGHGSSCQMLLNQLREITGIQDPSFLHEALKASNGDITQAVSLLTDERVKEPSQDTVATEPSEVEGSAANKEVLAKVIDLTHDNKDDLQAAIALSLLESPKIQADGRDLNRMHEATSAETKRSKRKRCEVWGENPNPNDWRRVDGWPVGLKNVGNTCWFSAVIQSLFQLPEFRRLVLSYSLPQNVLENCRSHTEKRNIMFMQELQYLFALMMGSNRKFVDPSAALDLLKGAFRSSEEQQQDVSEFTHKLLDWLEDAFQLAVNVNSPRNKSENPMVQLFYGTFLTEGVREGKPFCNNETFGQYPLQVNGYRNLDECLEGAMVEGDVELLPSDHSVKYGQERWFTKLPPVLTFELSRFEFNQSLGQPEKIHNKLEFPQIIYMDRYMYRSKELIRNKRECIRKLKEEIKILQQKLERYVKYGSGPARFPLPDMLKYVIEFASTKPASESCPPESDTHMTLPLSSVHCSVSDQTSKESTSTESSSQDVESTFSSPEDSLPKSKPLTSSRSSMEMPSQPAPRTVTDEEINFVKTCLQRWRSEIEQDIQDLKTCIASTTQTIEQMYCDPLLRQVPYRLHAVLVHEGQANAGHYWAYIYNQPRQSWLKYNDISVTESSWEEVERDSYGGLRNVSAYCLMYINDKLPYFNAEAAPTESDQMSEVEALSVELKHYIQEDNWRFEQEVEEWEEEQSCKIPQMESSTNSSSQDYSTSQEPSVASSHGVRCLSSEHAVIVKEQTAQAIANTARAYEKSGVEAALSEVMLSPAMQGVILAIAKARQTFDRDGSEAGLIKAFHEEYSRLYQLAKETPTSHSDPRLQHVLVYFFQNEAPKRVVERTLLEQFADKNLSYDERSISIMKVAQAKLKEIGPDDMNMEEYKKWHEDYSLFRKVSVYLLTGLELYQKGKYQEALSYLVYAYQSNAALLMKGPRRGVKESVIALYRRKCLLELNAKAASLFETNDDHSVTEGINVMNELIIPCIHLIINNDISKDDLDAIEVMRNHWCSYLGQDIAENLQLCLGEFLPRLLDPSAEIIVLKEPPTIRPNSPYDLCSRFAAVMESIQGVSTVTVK

[3] = system: HCT-116; experiment: Antiproliferative activity against human HCT-116 cells assessed as reduction in cell viability incubated for 48 hrs by MTT assay; assay type: functional, cell-based; conditions: HCT-116, 48 h
[4] = molecular target: T3, Ubiquitin carboxyl-terminal hydrolase 19 (Homo sapiens, UniProt O94966); experiment: Inhibition of C-terminal 6-His tagged USP19 (unknown origin) (1 to 1290 residues) using Ub-Rh110MP as substrate by fluorescence based assay
T3 sequence (O94966 whole entry): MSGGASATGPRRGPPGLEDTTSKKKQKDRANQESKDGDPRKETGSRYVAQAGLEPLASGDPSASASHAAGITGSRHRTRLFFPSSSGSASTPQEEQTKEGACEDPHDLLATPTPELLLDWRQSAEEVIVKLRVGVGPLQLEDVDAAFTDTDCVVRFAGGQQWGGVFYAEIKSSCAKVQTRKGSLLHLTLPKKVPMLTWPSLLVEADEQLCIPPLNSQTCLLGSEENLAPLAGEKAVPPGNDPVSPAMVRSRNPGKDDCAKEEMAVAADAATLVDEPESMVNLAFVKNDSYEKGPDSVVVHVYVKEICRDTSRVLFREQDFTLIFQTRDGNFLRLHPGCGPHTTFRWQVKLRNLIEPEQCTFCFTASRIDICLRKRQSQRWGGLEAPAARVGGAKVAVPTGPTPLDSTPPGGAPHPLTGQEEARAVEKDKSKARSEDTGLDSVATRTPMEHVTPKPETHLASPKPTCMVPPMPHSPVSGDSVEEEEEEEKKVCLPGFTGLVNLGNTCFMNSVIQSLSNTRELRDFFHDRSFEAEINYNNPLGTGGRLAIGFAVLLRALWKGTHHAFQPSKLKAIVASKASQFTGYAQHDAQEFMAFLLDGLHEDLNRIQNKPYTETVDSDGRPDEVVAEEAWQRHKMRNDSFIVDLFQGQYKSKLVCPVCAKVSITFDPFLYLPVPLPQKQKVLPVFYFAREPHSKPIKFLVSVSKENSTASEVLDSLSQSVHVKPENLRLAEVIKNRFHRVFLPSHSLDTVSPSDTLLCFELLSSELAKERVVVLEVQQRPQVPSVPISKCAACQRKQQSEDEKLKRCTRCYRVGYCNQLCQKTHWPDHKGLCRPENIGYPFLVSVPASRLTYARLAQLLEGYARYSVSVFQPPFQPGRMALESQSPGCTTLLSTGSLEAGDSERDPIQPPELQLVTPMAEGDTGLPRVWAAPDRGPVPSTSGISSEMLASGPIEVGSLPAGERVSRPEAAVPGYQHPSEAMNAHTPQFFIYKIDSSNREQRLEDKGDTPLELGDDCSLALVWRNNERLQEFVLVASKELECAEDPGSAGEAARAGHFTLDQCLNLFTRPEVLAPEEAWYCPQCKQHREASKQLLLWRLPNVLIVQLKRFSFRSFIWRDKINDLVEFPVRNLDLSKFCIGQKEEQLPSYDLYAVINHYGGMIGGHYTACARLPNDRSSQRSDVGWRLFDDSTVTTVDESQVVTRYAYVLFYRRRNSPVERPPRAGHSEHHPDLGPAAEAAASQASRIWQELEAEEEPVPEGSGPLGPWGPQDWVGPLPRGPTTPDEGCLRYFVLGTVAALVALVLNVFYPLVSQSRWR

[5] = molecular target: Ubiquitin carboxyl-terminal hydrolase 7 (Homo sapiens, UniProt Q93009); experiment: Inhibition of full length His-tagged human recombinant USP7
[6] = molecular target: T4, Ubiquitin carboxyl-terminal hydrolase isozyme L1 (Homo sapiens, UniProt P09936); experiment: Inhibition of human UCH-L1
T4 sequence (P09936 whole entry): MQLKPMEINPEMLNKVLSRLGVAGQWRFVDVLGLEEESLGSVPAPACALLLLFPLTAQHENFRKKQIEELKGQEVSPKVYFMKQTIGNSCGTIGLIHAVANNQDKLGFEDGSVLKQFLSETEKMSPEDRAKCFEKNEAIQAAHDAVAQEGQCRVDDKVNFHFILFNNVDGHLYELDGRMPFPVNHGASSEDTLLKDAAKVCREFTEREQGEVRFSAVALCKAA

[7] = molecular target: T4, Ubiquitin carboxyl-terminal hydrolase isozyme L1; experiment: Inhibition of His-tagged UCH-L1 (unknown origin) expressed in Escherichia coli BL21 (DE3) by fluorescence based analysis
[8] = molecular target: T4, Ubiquitin carboxyl-terminal hydrolase isozyme L1; experiment: Inhibition of recombinant wild type UCH-L1 (unknown origin) by fluorescence based analysis

Ubiquitin carboxyl-terminal hydrolase 7, sequence (Q93009 whole entry): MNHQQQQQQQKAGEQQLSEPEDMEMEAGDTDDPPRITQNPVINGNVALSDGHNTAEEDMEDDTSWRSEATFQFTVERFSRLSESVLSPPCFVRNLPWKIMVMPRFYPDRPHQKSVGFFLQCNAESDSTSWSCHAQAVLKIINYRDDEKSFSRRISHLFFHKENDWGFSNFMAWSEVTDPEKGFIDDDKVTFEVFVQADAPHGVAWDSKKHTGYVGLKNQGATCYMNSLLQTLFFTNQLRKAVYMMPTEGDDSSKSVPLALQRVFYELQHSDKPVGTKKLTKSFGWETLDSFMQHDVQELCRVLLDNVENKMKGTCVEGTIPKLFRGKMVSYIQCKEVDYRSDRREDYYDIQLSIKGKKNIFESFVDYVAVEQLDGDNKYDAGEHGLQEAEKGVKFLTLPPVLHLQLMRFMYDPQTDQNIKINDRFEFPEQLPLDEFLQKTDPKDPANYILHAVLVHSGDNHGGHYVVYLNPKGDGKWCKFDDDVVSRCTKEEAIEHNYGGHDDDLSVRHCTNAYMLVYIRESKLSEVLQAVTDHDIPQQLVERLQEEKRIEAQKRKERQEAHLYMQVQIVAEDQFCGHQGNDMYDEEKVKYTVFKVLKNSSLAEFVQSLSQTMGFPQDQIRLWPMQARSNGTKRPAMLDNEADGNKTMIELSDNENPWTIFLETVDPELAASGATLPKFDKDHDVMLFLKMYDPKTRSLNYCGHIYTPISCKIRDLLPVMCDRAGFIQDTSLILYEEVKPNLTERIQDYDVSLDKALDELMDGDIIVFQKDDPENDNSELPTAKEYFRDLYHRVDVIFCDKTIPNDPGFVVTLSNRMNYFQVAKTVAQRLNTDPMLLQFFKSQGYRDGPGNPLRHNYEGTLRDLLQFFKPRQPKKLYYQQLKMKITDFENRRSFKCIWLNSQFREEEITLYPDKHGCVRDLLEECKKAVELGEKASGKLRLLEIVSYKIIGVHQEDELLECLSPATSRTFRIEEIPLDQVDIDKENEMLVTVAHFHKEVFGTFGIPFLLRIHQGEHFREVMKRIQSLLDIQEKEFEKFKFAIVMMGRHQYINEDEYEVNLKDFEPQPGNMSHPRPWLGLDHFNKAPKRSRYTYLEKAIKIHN

IC50 [2]: 29.6 µM
SMILES: OCCNCc1cc(Br)ccc1OCc1ccccc1

IC50 [5]: 0.193 µM
SMILES: O=C(CCc1ccccc1)N1CCC(O)(Cn2cnc3cc(Cl)ccc3c2=O)CC1

IC50 [7]: 7.7 µM
SMILES: COC(=O)CC[C@H](NC(=O)[C@H](C)NC[C@@H](NC(=O)OCc1ccccc1)C(C)C)C(=O)CF

More lines, now with the values behind:

SMILES: C=CC(=O)N1C/C(=C\c2ccc([N+](=O)[O-])cc2)C(=O)/C(=C/c2ccc([N+](=O)[O-])cc2)C1
IC50 [1]: 1.05 µM

SMILES: Cc1ccc(S(=O)(=O)Nc2cc(C(F)(F)F)ccc2C(=O)Nc2nc(-c3ccccc3)cs2)cc1
IC50 [3]: 1.1 µM

SMILES: O=C1c2ccccc2C(=O)c2oc(-c3ccc(F)cc3)nc21
IC50 [4]: 0.88 µM

SMILES: O=C1c2ccccc2C(=O)c2oc(-c3ccccc3)nc21
IC50 [4]: 0.544 µM

SMILES: C=CC(=O)N1CC/C(=C\c2ccc(F)c([N+](=O)[O-])c2)C(=O)/C(=C/c2ccc(F)c([N+](=O)[O-])c2)C1
IC50 [1]: 0.58 µM

SMILES: CCc1ccc(S(=O)(=O)Nc2ccc(-c3ccc(NS(=O)(=O)c4ccc(CC)cc4)cc3)cc2)cc1
IC50 [6]: 15 µM

SMILES: N#CN1CCC[C@H]1C(=O)N1CCc2c(-c3cn[nH]c3C(F)(F)F)cccc21
IC50 [8]: 0.67 µM
